Data set [1] relates to MIA PaCa-2. The data set is described as follows: Preferential cytotoxicity against human MIA PaCa-2 cells in DMEM measured after 24 hrs by WST-8 cell counting analysis. Type of data set: functional, cell-based. The note with it: MIA PaCa-2, 24 h. (Formazan colour is commonly taken as a measure of viable cells.)
The nature of data set [2]: Selectivity index, ratio of IC50 for preferential cytotoxicity against human MIA PaCa-2 cells in DMEM to PC50 for preferential cytotoxicity against human MIA PaCa-2 cells in nutrient-deprived medium. Type of data set: functional.
Data set [3] in a line: Selectivity index, ratio of IC50 for preferential cytotoxicity against human PANC-1 cells in DMEM to PC50 for preferential cytotoxicity against human PANC-1 cells in nutrient-deprived medium. Type of data set: functional.
In data set [4] the test system is PANC-1. The data set is described as follows: Preferential cytotoxicity against human PANC-1 cells in DMEM measured after 24 hrs by WST-8 cell counting analysis. Type of data set: functional, cell-based. The note with it: PANC-1, 24 h.
Data set [5] concerns PANC-1. Briefly: Preferential cytotoxicity against human PANC-1 cells in nutrient-deprived medium measured after 24 hrs by WST-8 cell counting analysis. Type of data set: functional.
In data set [6] the test system is MIA PaCa-2. Briefly: Preferential cytotoxicity against human MIA PaCa-2 cells in nutrient-deprived medium measured after 24 hrs by WST-8 cell counting analysis. Type of data set: functional.
In data set [7] the test system is MIA PaCa-2. The data set is described as follows: Antitumor activity against human MIA PaCa-2 cells xenografted in BALB/c/Nu/Nu mouse assessed as reduction in number of blood vessels in skin at 60 mg/kg, ip administered 5 times a week for 4 weeks. Type of data set: functional, organism-based. (In xenograft studies the graft and the host belong to different species.)

Data set [8] relates to MIA PaCa-2. The data set is described as follows: Antitumor activity against human MIA PaCa-2 cells xenografted in BALB/c/Nu/Nu mouse assessed as reduction in final tumor weight at 60 mg/kg, ip administered 5 times a week for 4 weeks (reference value: […]). Type of data set: functional.
The subject of data set [9] is MIA PaCa-2. Briefly: Antitumor activity against human MIA PaCa-2 cells xenografted in BALB/c/Nu/Nu mouse assessed as tumor volume at 60 mg/kg, ip administered 5 times a week for 4 weeks and measured on day 32 (reference value: 1417 mm3). Type of data set: functional. The note with it: time 32 day.
A short description of data set [10]: Toxicity in BALB/c/Nu/Nu mouse xenografted with human MIA PaCa-2 cells assessed as change in body weight at 60 mg/kg, ip administered 5 times a week for 4 weeks. The note with it: in vivo, 672 h. Type of data set: organism-based.

The values below come from ChEMBL document CHEMBL5576134, “Targeting Pancreatic Cancer with Novel Nicolaioidesin C Derivatives: Molecular Mechanism, In Vitro, and In Vivo Evaluations” (J Med Chem, 2024).

As usually defined, the IC50 is the concentration at which inhibition is half-maximal. A low value points to greater potency in that assay.

Active and inactive are the calls of the source. The calls are words filed in the database; no cut-off is given here.

`COc1cc(O)c(C(=O)[C@H]2CC=C(CCC=C(C)C)C[C@@H]2c2c(F)cccc2F)c(O)c1` (relative stereo): the half-maximal inhibitory concentration (IC50) in the data set on MIA PaCa-2 [1] turned out to be 26.3 µM; with PANC-1 [4] it was 19.4 µM. For the same compound, the “Selectivity Index” value is on record as 17 in data set [2] and 13 in [3]. Further, the PC50 in the data set with PANC-1 [5] is 1.49 µM; in the data set with MIA PaCa-2 [6] it was 1.54 µM.

For `COc1cc(O)c(C(=O)[C@H]2CC=C(CCC=C(C)C)C[C@@H]2c2cc(F)ccc2F)c(O)c1` (relative stereo), the IC50 in the data set with MIA PaCa-2 [1] was 26.6 µM; with PANC-1 [4], 17.1 µM. In addition, the “Selectivity Index” value in data set [2] is recorded as 32.7; in [3], 34.4. Moreover, the PC50 in the data set with PANC-1 [5] stood at 0.5 µM; in the data set with MIA PaCa-2 [6], 0.81 µM.

Consider `COc1cc(O)c(C(=O)[C@H]2CC=C(CCC=C(C)C)C[C@@H]2c2ccc(F)c(F)c2)c(O)c1` (relative stereo), for which the IC50 turned out to be 27.1 µM in the data set on MIA PaCa-2 [1] and 15.5 µM in the data set with PANC-1 [4]. For the same compound, the entries for the “Selectivity Index” value in data set [2] and in data set [3] were 39.3 and 28.5, respectively. The PC50 with PANC-1 [5] amounted to 0.54 µM; with MIA PaCa-2 [6] it was 0.69 µM.

As for `CC(C)=CCCC1=CC[C@H](C(=O)c2c(O)cccc2O)[C@@H](c2c(F)cccc2F)C1` (single isomer, unassigned), the IC50 was 28.7 µM in the data set on MIA PaCa-2 [1] and 21.6 µM in the data set on PANC-1 [4]. In addition, the results for the “Selectivity Index” value in data set [2] and in data set [3] were 18.9 and 16.1, respectively. Further, the PC50 came to 1.34 µM in the data set on PANC-1 [5] and 1.52 µM in the data set with MIA PaCa-2 [6].

`Nc1ccn([C@@H]2O[C@H](CO)[C@@H](O)C2(F)F)c(=O)n1` [GEMCITABINE]: in the data set on MIA PaCa-2 [7], the outcome was Active. Also, the Activity was 227 mg in the data set with MIA PaCa-2 [8], 632 mm3 with MIA PaCa-2 [9] and “Non-Toxic” in data set [10].
